Data on 4 compounds can be found in US20220177487A1, “FUSED POLYCYCLIC PYRIDONE COMPOUNDS AS INFLUENZA VIRUS REPLICATION INHIBITORS” (NIKANG THERAPEUTICS, INC., priority 2019, published 2022).

The subject of the assay is Influenza virus A/PR/8/34 (H1N1). Briefly: in vitro cytopathic effect (CPE) assay in MDCK cells. The format is cell-based. The following applies: H1N1|PR/8, 120 h; MDCK cells infected with Influenza virus A/PR/8/34 (H1N1), 5 days, cell viability by CCK8. In general terms: Protection from cytopathic effect is a common read-out in antiviral testing.
The compound `O=C1c2c(O)c(=O)ccn2N(C2c3cccc(F)c3CCc3c(F)cccc32)[C@@H]2[C@H]3C[C@@H]4CC[C@@]3(CCN12)O4` [Compound 9, (2S,4aS,14aR,14bR)-14-(1,9-difluoro-10,11-dihydro-5H-dibenzo[a,d][7]annulen-5-yl)-9-hydroxy-1,3,4,5,6,14,14a,14b-octahydro-2H-2,4a-epoxypyrido[1′,2′:1,6][1,2,4]triazino[3,4-a]-isoquinoline-8,10-dione] gave an EC50 of 0.02 µM.

Consider `O=C1c2c(O)c(=O)ccn2N(C2c3ccc(F)cc3CCc3cc(F)ccc32)[C@@H]2[C@H]3C[C@@H]4CC[C@@]3(CCN12)O4` [Compound 10, (2S,4aS,14aR,14bR)-14-(2,8-difluoro-10,11-dihydro-5H-dibenzo[a,d][7]annulen-5-yl)-9-hydroxy-1,3,4,5,6,14,14a,14b-octahydro-2H-2,4a-epoxypyrido[1′,2′:1,6][1,2,4]triazino[3,4-a]-isoquinoline-8,10-dione], for which the EC50 worked out at 0.0036 µM.

As to `O=C1c2c(O)c(=O)ccn2N([C@@H]2c3ccccc3SCc3cccc(F)c32)[C@@H]2[C@H]3C[C@@H]4CC[C@@]3(CCN12)O4` [Compound 3, (2S,4aS,14aR,14bR)-14-((S)-10-fluoro-6,11-dihydro-dibenzo[b,e]thiepin-11-yl)-9-hydroxy-1,3,4,5,6,14,14a,14b-octahydro-2H-2,4a-epoxypyrido[1′,2′:1,6][1,2,4]triazino[3,4-a]-isoquinoline-8,10-dione], the EC50 is 0.0021 µM.

As to `O=C1c2c(O)c(=O)ccn2N([C@H]2c3ccccc3SCc3cccc(F)c32)[C@@H]2[C@H]3C[C@@H]4CC[C@@]3(CCN12)O4` [Compound 4, (2S,4aS,14aR,14bR)-14-((R)-10-fluoro-6,11-dihydro-dibenzo[b,e]thiepin-11-yl)-9-hydroxy-1,3,4,5,6,14,14a,14b-octahydro-2H-2,4a-epoxypyrido[1′,2′:1,6][1,2,4]triazino[3,4-a]-isoquinoline-8,10-dione], the concentration for a half-maximal effect (EC50) is 0.052 µM.

In general, EC50 refers to the concentration giving half of the maximal effect.
